According to patent US12173349B2, “Lung protease nanosensors and uses thereof” (Massachusetts Institute of Technology, priority 2018, dated 2024):
Where no end group is shown, it is not given here. [ ]: non-standard residue; d: D form.

Experiments:
[1] = test system: P. aeruginosa strain PA01 lung infection; experiment: histology and immunofluorescence of lung sections after antibiotic treatment; type: in vivo, mice
Experimental: To test whether inflammation remained after antibiotic therapy, histological and immunofluorescence analysis of lung sections were performed from infected and treated mice. […] The robust diagnostic capability of ELA to identify infection but poor ability to monitor treatment, paired with the robust ability for LAS to specifically monitor treatment highlights the importance of multiplexing and measuring both host and pathogen factors.
Individual responses to antimicrobial treatment can be highly variable, dependent upon the strain of pathogen and the presence of antibiotic resistance, and current clinical tests take 24-72 hours to identify antibiotic susceptibility (Caliendo et al., Clin Infect Dis, 57, S139, 2013). In addition, current clinical tests used to visualize lung infections (e.g., chest X-ray and computed tomography) are often unable to distinguish active infections from those that have been adequately treated until several weeks after antibiotic therapy is complete, because the airspace opacifications characteristic of pneumonia remain apparent on routine radiography screens (Bruns et al., J Gen Intern Med, 25, 203, 2010). Therefore, the ability of the infection-tracking ABNs to identify successful versus insufficient treatment on an acute time-scale shortly after therapeutic initiation was sought to be evaluated. Only 5 hours after establishing lung infections with PA01, antibiotic treatment was initiated with either ciprofloxacin (efficacious against P. aeruginosa) or doxycycline (ineffective against gram-negative bacteria including P. aeruginosa) (FIG. 13A). The following day, multiplexed LAS-E and ELA-E ABNs were administered and urine was collected. […] The persistent Pseudomonas immunostaining observed following ciprofloxacin treatment might be derived from residual Pseudomonas antigens remaining from lysed bacteria that had not yet been cleared by the immune system. Alternatively, the reduced LAS sensor reading in these treated mice could reflect a suppression of LasA secretion from bacteria as they are killed by the potent antibiotic.
All animal studies were approved by Massachusetts Institute of Technology's Committee on Animal Care. For infection studies, 5-7 week old female CD-1 mice were innoculated intratracheally with 1.25×10^6 CFU of P. aeruginosa strain PA01 in 50 μL of PBS. Bacteria were cultured overnight in LB broth, then subcultured and grown to log phase (OD600≈0.5). Bacteria were pelleted, washed with sterile PBS, and then resuspended to the requisite concentration for intratracheal administration. Mice were administered buprenorphine and meloxicam several hours after infection. For antibiotic treatment studies, mice were injected intraperitoneally with 40 mg/kg ciprofloxacin or 30 mg/kg doxycycline twice per day for up to 6 days.
Animals were perfused with PBS followed by 10% formalin solution. The lungs were resected and fixed in formalin before paraffin embedding and sectioning. […] Fluorescence images were acquired on a Perkin Elmer Pannoramic250. Quantification of neutrophil signal was completed by capturing 3-5 representative fields from each stained lung section and counting positive cells. Quantification of pseudomonas signal was completed by capturing 3-5 representative fields from each stained lung section and measuring total positive area after uniform thresholding of each single-channel fluorescence image (ImageJ).

PA01 supernatant = experiment: cleavage of FRET-paired substrates by bacterial supernatant; type: biochemical, Pseudomonas aeruginosa; details: added to PA01 supernatant
Experimental: The specificity of LAS and ELA for P. aeruginosa cleavage was tested by collecting supernatants from PA01 or Staphylococcus aureus cultures and incubating them with FRET-paired substrates LAS-Q and ELA-Q in 384 well plates. […] To investigate whether the LAS and ELA substrates are also susceptible to cleavage by host proteases, each was incubated with recombinant mouse proteases.
Supernatant from PA01 and S. aureus were collected and added to substrates in 384 well plates and dequenching of FAM was monitored at 37° C. (Tecan). Fluorescence change at 30 minutes was reported. For recombinant protease assays, enzyme was added to the substrates in enzyme-specific buffer (MMP7 & 9 buffer: 50 mM Tris, 150 mM NaCl, 5 mM CaCl2), […], pH 7.5; Thrombin: PBS; NE: 100 mM HEPES, 500 mM NaCl, 0.05% Tween 20) in a 384 well plate for time-lapse fluorimetry to measure dequenching at 37° C. (Tecan).

[2] = test system: 15 proteases in the LUAD protease panel; experiment: in vitro recombinant protease screen of FRET-paired substrates; type: biochemical; details: fluorescence fold change at 45 minutes; 1 μM substrate, 12.5 nM recombinant enzyme; MP metallo-, SP serine, AP aspartic protease
Excerpt: Hundreds of peptide sequences have been previously designed and validated as protease substrates, leveraging known catalytic specificities of different protease families, published datasets and substrate sequences in databases like cutDB and MEROPS (Igarashi et al., Nucleic Acids Res 35, D546-549, 2007; Rawlings et al., Nucleic Acids Res 46, D624-D632, 2018). Fourteen of these substrates were nominated in an effort to cover the specificity profiles of metallo-, serine and aspartic endoproteases, all of which were included in the LUAD protease panel, and the catalytic activity of each protease-substrate pair was characterized. Quenched probes that incorporated the 14 peptide substrates were synthesized such that they fluoresce upon proteolytic cleavage to enable real-time monitoring of protease activity in vitro (FIG. 3A and Table 2). Each probe was incubated with each protease in the panel and fluorescence was monitored over 45 minutes. Shown are sample kinetic plots monitoring dequenching of the 14 FRET-paired probes when incubated with (above) and without (below) recombinant matrix metalloproteinase 3 (MMP3) (FIG. 3B). […] See also FIG. 19.
Fluorogenic protease substrates were synthesized by CPC Scientific. Recombinant proteases were purchased from Enzo Life Sciences, R&D Systems and Haematologic Technologies. For recombinant protease assays, fluorogenic substrates PPQ1-14 (1 μM final concentration) were incubated in 30 μL final volume in appropriate enzyme buffer, according to manufacturer specifications, with 12.5 nM recombinant enzyme at 37° C. (FIG. 3). Proteolytic cleavage of substrates was quantified by increases in fluorescence over time by fluorimeter (Tecan Infinite M200 Pro). Enzyme cleavage rates were quantified as relative fluorescence increase over time normalized to fluorescence before addition of protease. Hierarchical clustering was performed in GENE-E, using fluorescence fold changes at 45 minutes.

[3] = test system: Kras and p53 mutant lung adenocarcinoma (KP mice); experiment: urinary ABN readout and random forest classification in KP lung adenocarcinoma model; type: in vivo
Experimental: To characterize ABN performance in vivo, 14 protease-sensitive ABNs were administered to KP mice and healthy, age and sex-matched controls at 5, 7.5 and 10.5 weeks after tumor initiation. Mouse bladders were voided one hour after intrapulmonary delivery and all fresh urine produced during the subsequent hour (from 60-120 minutes after administration) was pooled and collected. LC-MS/MS was performed and peak area ratios (defined as peak area of urinary reporter divided by peak area of spiked-in internal standard) of protease-sensitive reporters were mean-normalized within each sample to reduce mouse-to-mouse variation.
A random forest classifier was then sought to be built to enable prospective diagnosis of lung cancer in KP mice. Random forest is a high-performance classifier, applicable to a wide variety of classification tasks, that generates a collection of decision trees (a “forest”) that are sampled to produce classification results (Breiman, Machine Learning 45, 5-32, 2001). A random forest classifier was trained using 50% of control mice at 5 weeks, 7.5 weeks and 10.5 weeks, as well as 50% of KP mice at 7.5 weeks (FIG. 6A). The classifier assigned a probability that each mouse belonged to either the KP cohort or the healthy control cohort (FIG. 6B, “Training” panel), achieving perfect separation of control and KP mice. The classifier was then sought to be tested on an independent validation cohort consisting of classifier-naive KP mice at 5 weeks, 7.5 weeks and 10.5 weeks post-induction, as well as the remaining control mice from each time point.
Male B6/SV129 Kras^LSL-G12D/+; Trp53^fl/fl (KP) mice between 18 and 30 weeks old were used for lung adenocarcinoma experiments. Tumors were initiated, as described previously (DuPage et al., Nat Protoc 4, 1064-1072 (2009)), by the intratracheal administration of 50 μL of adenovirus-SPC-Cre (2.5×10^8 PFU in Opti-MEM with 10 mM CaCl2)) under isoflurane anesthesia. […] Tumor growth was monitored by micro computed tomography (microCT) imaging (General Electric) and was scored by a blinded radiation oncologist using MicroView (Parallax Innovations) (Table 4). Tumor volumes were calculated by using the ROI sphere/elliptical tool.
ABN constructs (GluFib-Substrate-PEG-840 kDa) for urinary experiments were synthesized by CPC Scientific (Sunnyvale, CA). ABNs were dosed (50 μL total volume, 20 μM concentration per ABN) by intratracheal intubation, as described above. Bladders were voided 60 minutes after ABN administration and all urine produced 60-120 min after ABN administration was collected using custom tubes in which the animals rest upon 96-well plates that capture urine. Urine was pooled and frozen at −80° C. until analysis by LC-MS/MS.
Liquid chromatography/tandem mass spectrometry was performed by Syneos Health (Princeton, NJ) using a Sciex 6500 triple quadrupole instrument. Briefly, urine samples were treated with UV irradiation to photocleave the ANP linker and liberate the Glu-Fib reporter from residual peptide fragments. Samples were extracted by solid-phase extraction and analyzed by multiple reaction monitoring by LC-MS/MS to quantify concentration of each Glu-Fib mass variant. Analyte quantities were normalized to a spiked-in internal standard and concentrations were calculated from a standard curve using peak area ratio (PAR) to the internal standard. Mean normalization was performed on PAR values to account for mouse-to-mouse differences in ABN inhalation efficiency and urine concentration.
Principal component analysis (PCA) was performed on mean normalized PAR values in the R statistical environment (Team, R.C. R, R Foundation for Statistical Computing, Vienna, Austria, 2017) using the prcomp function. Binary classification was performed using the Caret package (Kuhn, M. caret: Classification and Regression Training. (2017)) in the R statistical environment). […]

[4] = 24 hours post-infection, after 19 hours of antibiotic therapy

| Molecule | protease class(es) cleaving the substrate in vitro [2] | urinary reporter enrichment relative to healthy controls ([3]; KP7.5 wk urine) | urinary reporter enrichment relative to healthy controls ([3]; KP10.5 wk urine) | other results |
| --- | --- | --- | --- | --- |
| O=C(O)c1cn(C2CC2)c2cc(N3CCNCC3)c(F)cc2c1=O [ciprofloxacin] |  |  |  | decrease of Pseudomonas immunofluorescent signal compared to the doxycycline-treated group [1, 4]: ~60%; lung inflammation and neutrophils [1, 4]: marked lung inflammation and elevated neutrophils; Pseudomonas immunofluorescence signal in lungs of infected mice relative to uninfected or ciprofloxacin-treated mice ([1]; 4 day course of ciprofloxacin, 40 mg/kg intraperitoneally twice per day): 7-9 fold; Pseudomonas in lung sections after treatment ([1]; histology and immunofluorescent staining after ciprofloxacin course): no Pseudomonas; decrease in neutrophil count in lungs after antibiotic treatment ([1]; relative to infected mice): ~30% |
| [Cl-].[Cl-].[Zn+2] [ZnCl2, reference compound] |  |  |  | effect on cleavage signal of LAS-Q and ELA-Q (PA01 supernatant): suppressed the cleavage signal |
| PP02: ABN: reporter eG(+6V)ndneeGF(+1F)s(+1A)r, ANP, substrate PVGLIG, nanocarrier PEG8-40 kDa (chain 1 EGVNDNEEGFFSAR; not fully specified (some residues); printed as PP02: ABN: reporter eG(+6V)ndneeGF(+1F)s(+1A)r, ANP, substrate PVGLIG, nanocarrier PEG8-40 kDa) | metalloproteases or both metalloproteases and aspartic proteases | enriched | enriched |  |
| PP09: ABN: reporter eGVndneeGF(+10F)s(+4A)r, ANP, substrate KPISLISSG, nanocarrier PEG8-40 kDa (chain 1 [dE]GV[dN][dD][dN][dE][dE]GF[+10F][dS][+4A][dR]; also: ANP photolabile linker, PEG8-40 kDa nanocarrier, linkage of reporter, ANP, substrate and carrier not given here) | metalloproteases or both metalloproteases and aspartic proteases | enriched | enriched |  |
| PP03: ABN: reporter e(+3G)(+1V)ndneeGFFs(+4A)r, ANP, substrate PVPLSLVM, nanocarrier PEG8-40 kDa (chain 1 [dE]G[+1V][dN][dD][dN][dE][dE]GFF[dS][+4A][dR]; not fully specified (some residues); printed as PP03: ABN: reporter e(+3G)(+1V)ndneeGFFs(+4A)r, ANP, substrate PVPLSLVM, nanocarrier PEG8-40 kDa; also: ANP photolabile linker, PEG8-40 kDa nanocarrier, linkage of reporter, ANP, substrate and carrier not given here) | metalloproteases or both metalloproteases and aspartic proteases | enriched | enriched |  |
